{
  "source": "patent US20040152685A1",
  "about": "“Agents and methods for the prevention of initial onset and recurrence of existing cancers” (priority 2001, published 2004)",
  "type_in_all_cases": "cell-based",
  "key": {"DU145 cells": {"tested_on": "DU145 cells", "experiment": "Cell growth of DU145 prostate cancer cells after treatment", "details": "Homo sapiens, DU-145, FIG. 6, read-out: concentration necessary to see 50% inhibition of growth"}, "LNCaP cells": {"tested_on": "LNCaP cells", "experiment": "Cell growth of LNCaP prostate cancer cells after treatment", "details": "for inhibition of growth of LNCaP cells: 72 hours of treatment, FIG. 7", "experimental": "Cells were treated with either eugenol (0.25, 0.5, 0.75 or 1 mM) or 2-ME (0.5, 1, 2 or 3 mM) or both (0.25, 0.5, 0.75 or 1 mM of eugenol along with 0.5 mM of 2-ME). Cell growth was measured following 72 hours of treatment as described above."}, "[1]": {"tested_on": "prostate cancer cell lines (LNCaP, DU145) and brain and/or nervous system cancer cell line (DAOY)", "experiment": "Induction of apoptosis in prostate and brain/nervous system cancer cell lines", "details": "DU145, DAOY cells", "from_the_text": "(§1) In a multitude of experiments, using prostate cancer cell lines (both androgen-dependent (LNCaP), and androgen-independent (DU145) cells), and a brain and/or nervous system cancer cell line (DAOY), the present inventors have studied the effects of 2-ME and 16-ES on cell proliferation and the induction of apoptosis, in a number of ways."}, "[2]": {"tested_on": "prostate cancer cell lines (LNCaP, DU145) and brain and/or nervous system cancer cell line (DAOY)", "experiment": "Cell proliferation of prostate and brain/nervous system cancer cell lines", "details": "DU145, DAOY cells", "from_the_text": "as §1"}},
  "note": "Entries after “also recorded” stand apart in the source; their conditions may differ.",
  "data": [
    {"smiles": "C=CCc1ccc(O)c(OC)c1", "note": "[eugenol]", "values": [
      {"measurement": "IC50", "setting": "DU145 cells", "value": "> 2000", "unit": "µM"},
      {"measurement": "inhibition of growth of LNCaP cells", "setting": "LNCaP cells; 0.25 mM of eugenol", "value": "about 30%"},
      {"measurement": "IC50", "setting": "LNCaP cells; Homo sapiens, LNCaP, read-out: concentration necessary to see 50% inhibition of growth", "value": "~750", "unit": "µM"}
    ]},
    {"smiles": "COc1cc2c(cc1O)CC[C@@H]1[C@@H]2CC[C@]2(C)[C@@H](O)CC[C@@H]12", "note": "[2-ME, 2-methoxyoestradiol]", "values": [
      {"measurement": "inhibition of growth of LNCaP cells", "setting": "LNCaP cells; 0.5 mM of 2-ME", "value": "about 20%"},
      {"measurement": "pro-apoptotic effects", "setting": "[1]", "value": "has pro-apoptotic effects"},
      {"measurement": "inhibition of cancerous cell growth", "setting": "[2]", "value": "significantly inhibits cancerous cell growth; also recorded: inhibits the growth"}
    ]},
    {"smiles": "C[C@]12CC[C@@H]3c4ccc(O)cc4CC[C@H]3[C@@H]1C[C@H](O)[C@@H]2O", "note": "[16-ES, 16-epiestriol]", "values": [
      {"measurement": "pro-apoptotic effects", "setting": "[1]", "value": "does not"},
      {"measurement": "inhibition of cancerous cell growth", "setting": "[2]", "value": "does not"}
    ]}
  ]
}
